What was measured:
LN229 cells = experiment: GBM cell survival rate in LN229; format: cell-based; settings: Homo sapiens, LN-229, 0-50 μg/mL, 48 hours
Method: (§1) In order to determine whether cholesterol depletion caused by intracellular cholesterol efflux inhibits GBM cell proliferation and induces cell death, U87MG and LN229 cells were treated with rHDL nanoparticles, 24HC, and 24HC-containing rHDL nanoparticles, and the cell survival rate was evaluated. After 24 hours of incubation, the cells were treated with the nanoparticles according to the present invention at concentrations of 0-50 μg/mL, and the cell survival rate (%) was evaluated after 48 hours of incubation.

pericytes = experiment: Toxicity (cell survival rate) in pericytes; format: cell-based; settings: up to 5 μg/mL, 8 hours
Method: (§2) The toxicity of 24HC-containing rHDL nanoparticles toward hBMECs, iBMECs, pericytes, and normal brain astrocytes, which constitute the BBB until the nanoparticles penetrate the BBB and reach the GBM, was evaluated. hBMECs, iBMECs, pericytes, and astrocytes were seeded into a 96-well cell culture plate. Pericytes were cultured in PM medium, astrocytes were cultured in the same culture medium as described in Example 1, and hBMEC and iBMEC cells were cultured in the same culture medium as described in Example 6. After 24 hours of incubation, the cells were treated with the nanoparticles according to the present invention at concentrations ranging from Oto 5 μg/mL, and the cell survival rate (%) was evaluated after 8 hours of incubation. […] In addition, it was confirmed that the nanoparticles are not toxic to normal brain cells other than GBM.

[1] = tested on: ABCA1 mRNA expression in U87MG cells; experiment: qPCR of ABCA1 mRNA in U87MG; format: cell-based; settings: 1 μg/mL of 24HC, 4 hours
Source text: (§3) 24HC is an endogenous LXR agonist and is known to induce the expression of genes responsible for cholesterol efflux, such as ABCA1 and ABCG1, thereby inducing intracellular cholesterol efflux, and to inhibit exogenous cholesterol uptake by downregulating LDLR. Accordingly, we anticipated that treatment of GBM with 24HC-containing rHDL nanoparticles would result in a greater decrease in LDLR expression and an increase in ABCA1 expression due to the action of 24HC, compared to the treatment with 24HC alone. Therefore, U87MG and LN229 cells were treated with 24HC, 24HC-containing rHDL nanoparticles, and rHDL nanoparticles, and the changes in LDLR and ABCA1 mRNA expression were confirmed using qPCR (real-time polymerase chain reaction). U87MG and LN229 cells were seeded at 0.5×10^5 cells/well in a 6-well cell culture plate and cultured for 24 hours under the conditions described in Example 1 above. In qPCR experiments, U87MG cells were treated with 1 μg/mL of 24HC for 24 hours, and LN229 cells were treated with 5 μg/mL of 24HC for 24 hours, and changes in LDLR mRNA were confirmed. […] In the case of rHDL nanoparticles, the amount of apolipoprotein E3 in the 24HC-containing rHDL nanoparticles was quantified using a BCA assay, and the same amount of apolipoprotein E3 corresponding to the 24HC treatment concentration was calculated prior to treatment with rHDL nanoparticles.

iBMECs = experiment: Toxicity (cell survival rate) in iBMECs; format: cell-based, human; settings: up to 5 μg/mL, 8 hours
Method: as §2

GBM #P1 cells = experiment: Cell viability in patient-derived GBM #P1; format: cell-based; settings: 0-50 μg/mL, 48 hours
Method: (§4) In order to determine whether cholesterol depletion due to intracellular cholesterol efflux inhibits GBM cell proliferation and induces cell death, GBM #P1 and GBM #P2 cells were treated with rHDL nanoparticles, 24HC, and 24HC-containing rHDL nanoparticles, and cell viability was evaluated. After 24 hours of incubation, the cells were treated with 0-50 μg/mL of the nanoparticles, and the cell viability (%) was assessed after 48 hours of incubation.

[2] = tested on: LDLR mRNA expression in LN229 cells; experiment: qPCR of LDLR mRNA in LN229; format: cell-based; settings: LN229, 5 μg/mL of 24HC, 24 hours
Source text: as §3

[3] = tested on: LDLR mRNA expression in U87MG cells; experiment: qPCR of LDLR mRNA in U87MG; format: cell-based; settings: 1 μg/mL of 24HC, 24 hours
Source text: as §3

hBMECs = experiment: Toxicity (cell survival rate) in hBMECs; format: cell-based, human; settings: up to 5 μg/mL, 8 hours
Method: as §2

[4] = tested on: ABCA1 mRNA expression in LN229 cells; experiment: qPCR of ABCA1 mRNA in LN229; format: cell-based; settings: LN229, 5 μg/mL of 24HC, 4 hours
Source text: as §3

U87MG cells = experiment: GBM cell survival rate in U87MG; format: cell-based; settings: Homo sapiens, U-87 MG, 0-50 μg/mL, 48 hours
Method: as §1

[5] = tested on: LDLR mRNA expression in GBM #P1 and GBM #P2 cells; experiment: qPCR of LDLR mRNA in patient-derived GBM cells; format: cell-based; settings: GBM #P1 and GBM #P2, 2 μg/mL of 24HC, 4 hours
Method: GBM #P1 and GBM #P2 cells were treated with 24HC, 24HC-containing rHDL nanoparticles, and rHDL nanoparticles, and the changes in LDLR and ABCA1 mRNA expression were confirmed using qPCR. GBM #P1 and GBM #P2 cells were seeded at 0.5×10^5 cells/well in a 6-well cell culture plate and were cultured for 24 hours. The cells were cultured under the conditions as described in Example 12 above. GBM #P1 and GBM #P2 cells were treated with 24HC and 24HC-containing rHDL nanoparticles at a concentration of 2 μg/mL of 24HC for 4 hours. In the case of rHDL nanoparticles, the amount of apolipoprotein E3 in the 24HC-containing rHDL nanoparticles was quantified using a BCA assay, and then the same amount of apolipoprotein E3 corresponding to the 24HC treatment concentration was calculated prior to treatment with rHDL nanoparticles.

normal brain astrocytes = experiment: Toxicity (cell survival rate) in astrocytes; format: cell-based; settings: up to 5 μg/mL, 8 hours
Method: as §2

GBM #P2 cells = experiment: Cell viability in patient-derived GBM #P2; format: cell-based; settings: 0-50 μg/mL, 48 hours
Method: as §4

[6] = tested on: ABCA1 protein in PDAC cells; settings: PDAC cells (Raimund O, Life Sci Alliance, 2022); cited from earlier work

| Compound | IC50 (LN229 cells) | Toxicity in pericytes (pericytes) | Level of ABCA1 mRNA expression compared to the control group [1] | Toxicity in iBMECs (iBMECs) | IC50 (GBM #P1 cells) | Level of LDLR mRNA expression compared to the control group [2] | Level of LDLR mRNA expression compared to the control group [3] | Toxicity in hBMECs (hBMECs) | Level of ABCA1 mRNA expression compared to the control group [4] | IC50 (U87MG cells) | Level of LDLR mRNA expression, lower compared to the control group [5] | Toxicity in astrocytes (normal brain astrocytes) | IC50 (GBM #P2 cells) | Expression of the ABCA1 protein [6] |
| --- | --- | --- | --- | --- | --- | --- | --- | --- | --- | --- | --- | --- | --- | --- |
| CC(C)C(O)CC[C@@H](C)[C@H]1CC[C@H]2[C@@H]3CC=C4C[C@@H](O)CC[C@]4(C)[C@H]3CC[C@]12C (some centres unmarked) [Formulation 24HC, 24-hydroxycholesterol] | 12.8 µg/mL | none of the rHDL nanoparticles, 24HC, or 24HC-containing rHDL nanoparticles exhibited toxicity | increased | none of the rHDL nanoparticles, 24HC, or 24HC-containing rHDL nanoparticles exhibited toxicity | 40.2 µg/mL | decreased | decreased | none of the rHDL nanoparticles, 24HC, or 24HC-containing rHDL nanoparticles exhibited toxicity | increased | 6.7 µg/mL | significantly reduced | none of the rHDL nanoparticles, 24HC, or 24HC-containing rHDL nanoparticles exhibited toxicity | 13.8 µg/mL |  |
| O=S(=O)(c1ccccc1)N(CC(F)(F)F)c1ccc(C(O)(C(F)(F)F)C(F)(F)F)cc1 [Formulation T0901317] |  |  |  |  |  |  |  |  |  |  |  |  |  | increased the expression of the ABCA1 protein |
